{
  "source": "patent US4093713A",
  "about": "“Dipeptide derivatives with central nervous system activity and preparation thereof” (Ayerst McKenna & Harrison Ltd., priority 1977, dated 1978)",
  "origin": "cited, not measured here",
  "key": {"[1]": {"system": "sedative effects of deserpidine", "settings": "monkeys; literature: Plotnikoff"}, "[2]": {"system": "sedative effects of deserpidine", "settings": "mice; literature: Plotnikoff"}, "[3]": {"system": "effects of oxotremorin", "settings": "literature: Plotnikoff 1972"}, "[4]": {"settings": "in vivo"}, "[5]": {"system": "behavioral effects of L-DOPA", "settings": "literature: Plotnikoff 1971, Friedman 1973"}},
  "note": "Where two headings read alike, the source gives them in different places.",
  "data": [
    {"substance": "H-L-prolyl-L-leucyl-glycinamide [H-Pro-Leu-Gly-NH2]", "values": [
      {"measurement": "reversal of the sedative effects of deserpidine", "setting": "[1]", "result": "reverses the sedative effects of deserpidine"},
      {"measurement": "reversal of the sedative effects of deserpidine", "setting": "[2]", "result": "reverses the sedative effects of deserpidine"},
      {"measurement": "antagonism of the effects of oxotremorin", "setting": "[3]", "result": "antagonizes the effects of oxotremorin"},
      {"measurement": "duration of action", "setting": "[4]", "result": "short duration of action"},
      {"measurement": "first step in the inactivation", "setting": "[4]", "result": "proteolytic cleavage of the Pro-Leu bond with formation of proline and leucyl-glycinamide"},
      {"measurement": "potentiation of the behavioral effects of L-DOPA", "setting": "[5]", "result": "potentiates the behavioral effects of (3,4-dihydroxyphenyl)-L-alanine (L-DOPA)"}
    ]}
  ]
}
